ChEMBL document CHEMBL4422678, “Design and synthesis of novel dual-cyclic RGD peptides for αvβ3 integrin targeting” (Bioorg Med Chem Lett, 2019)
Each block holds one compound with its values, some of them ahead of it. Active and inactive are the calls of the source. The rule behind the calls is not given here. *1 amine or outer side, *2 acyl side, *3 side chain or, on linkers, in order; H or OH if unused. Where a SMILES comes first, the peptide text is derived from it. [ ]: non-standard residue; d: D form. The star is where a group is joined. Dolaproine = CO[C@@H]([C@@H]1CCCN1)[C@@H](C)C(=O)O; X1 = O=C(CCCCC(=O)*)N1Cc2ccccc2C#Cc2ccccc21; Dil = CC[C@H](C)[C@H](NC)[C@@H](CC(=O)O)OC; PABC = O=C(OCc1ccc(N[*:1])cc1)[*:2]; X2 = C[C@@H](N*)[C@@H](O)c1ccccc1; NMeV = CN[C@H](C(=O)O)C(C)C

Columns and labels:
[1] = target: T1, Integrin alpha-V/beta-3 (Homo sapiens, UniProt P05106+P06756); assay: Binding affinity to alphaVbeta3 integrin in human SKOV3 cells assessed as inhibition of cell adhesion to fibrinogen measured after 2 hrs by MTT assay; assay type: cell-based
Target sequence in this assay (P05106 27-788 limits assumed): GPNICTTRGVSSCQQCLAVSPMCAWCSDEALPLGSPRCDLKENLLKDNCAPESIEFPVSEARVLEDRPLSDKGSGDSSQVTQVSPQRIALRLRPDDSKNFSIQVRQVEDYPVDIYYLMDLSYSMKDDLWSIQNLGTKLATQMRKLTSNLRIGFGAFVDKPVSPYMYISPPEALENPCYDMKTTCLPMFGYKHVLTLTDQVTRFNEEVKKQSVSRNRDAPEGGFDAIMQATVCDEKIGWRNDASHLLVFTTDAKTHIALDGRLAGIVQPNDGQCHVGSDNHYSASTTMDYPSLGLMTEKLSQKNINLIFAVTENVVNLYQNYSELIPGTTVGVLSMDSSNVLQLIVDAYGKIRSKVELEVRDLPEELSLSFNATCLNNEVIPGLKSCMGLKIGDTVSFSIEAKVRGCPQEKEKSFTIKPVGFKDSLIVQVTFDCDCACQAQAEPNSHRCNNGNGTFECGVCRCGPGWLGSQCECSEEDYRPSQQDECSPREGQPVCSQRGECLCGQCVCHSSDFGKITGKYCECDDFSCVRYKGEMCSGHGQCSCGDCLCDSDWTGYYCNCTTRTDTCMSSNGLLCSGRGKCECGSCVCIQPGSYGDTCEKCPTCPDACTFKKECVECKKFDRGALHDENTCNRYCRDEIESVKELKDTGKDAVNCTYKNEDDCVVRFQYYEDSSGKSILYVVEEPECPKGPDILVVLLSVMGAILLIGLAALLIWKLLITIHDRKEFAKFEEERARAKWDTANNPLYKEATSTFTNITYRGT
Target sequence in this assay (P06756 31-889 limits assumed): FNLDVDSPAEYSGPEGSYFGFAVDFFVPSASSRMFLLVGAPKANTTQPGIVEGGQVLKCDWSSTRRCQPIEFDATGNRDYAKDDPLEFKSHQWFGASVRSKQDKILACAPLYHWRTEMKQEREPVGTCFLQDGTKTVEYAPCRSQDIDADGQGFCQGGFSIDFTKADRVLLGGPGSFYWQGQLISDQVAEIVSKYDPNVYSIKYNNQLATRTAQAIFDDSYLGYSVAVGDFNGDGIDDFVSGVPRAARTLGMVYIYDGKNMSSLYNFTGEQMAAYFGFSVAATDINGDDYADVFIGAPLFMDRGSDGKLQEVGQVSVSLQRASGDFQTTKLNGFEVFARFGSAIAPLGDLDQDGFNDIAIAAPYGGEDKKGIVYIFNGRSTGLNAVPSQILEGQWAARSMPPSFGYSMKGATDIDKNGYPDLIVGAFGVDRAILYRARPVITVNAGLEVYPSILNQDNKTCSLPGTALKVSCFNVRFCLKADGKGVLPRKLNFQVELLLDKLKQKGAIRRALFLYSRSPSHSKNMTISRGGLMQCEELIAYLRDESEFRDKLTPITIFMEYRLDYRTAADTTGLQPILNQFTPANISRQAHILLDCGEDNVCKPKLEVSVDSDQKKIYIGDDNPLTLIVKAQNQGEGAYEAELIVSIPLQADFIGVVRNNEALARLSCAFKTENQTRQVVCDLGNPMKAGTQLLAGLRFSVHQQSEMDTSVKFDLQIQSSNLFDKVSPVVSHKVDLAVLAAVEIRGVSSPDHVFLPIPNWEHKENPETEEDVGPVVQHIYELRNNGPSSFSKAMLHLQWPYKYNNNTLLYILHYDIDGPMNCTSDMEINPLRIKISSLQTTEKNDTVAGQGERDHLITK
Target sequence in this assay (P06756 891-1048 limits assumed): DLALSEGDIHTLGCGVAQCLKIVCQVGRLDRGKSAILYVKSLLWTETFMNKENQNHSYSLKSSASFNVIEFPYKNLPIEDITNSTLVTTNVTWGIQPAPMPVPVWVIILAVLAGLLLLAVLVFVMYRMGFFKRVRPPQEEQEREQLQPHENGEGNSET

[2] = system: MCF7; assay: Cytotoxicity against human MCF7 cells assessed as inhibition of cell growth at 0.4 uM after 72 hrs by CCK8 assay; assay type: functional; settings: MCF7, 72 h, read-out: GI
[3] = system: MCF7; assay: Cytotoxicity against human MCF7 cells assessed as inhibition of cell growth at 0.004 uM after 72 hrs by CCK8 assay; assay type: functional; settings: MCF7, 72 h, read-out: GI
[4] = system: MCF7; assay: Cytotoxicity against human MCF7 cells assessed as inhibition of cell growth at 400 uM after 72 hrs by CCK8 assay; assay type: functional; settings: MCF7, 72 h, read-out: GI
[5] = system: MCF7; assay: Cytotoxicity against human MCF7 cells assessed as inhibition of cell growth at 40 uM after 72 hrs by CCK8 assay; assay type: functional; settings: MCF7, 72 h, read-out: GI
[6] = system: SK-OV-3; assay: Cytotoxicity against human SKOV3 cells assessed as inhibition of cell growth at 0.004 uM after 72 hrs by CCK8 assay; assay type: functional; settings: SK-OV-3, 72 h, read-out: GI
[7] = system: SK-OV-3; assay: Cytotoxicity against human SKOV3 cells assessed as inhibition of cell growth at 400 uM after 72 hrs by CCK8 assay; assay type: functional; settings: SK-OV-3, 72 h, read-out: GI
[8] = system: SK-OV-3; assay: Cytotoxicity against human SKOV3 cells assessed as inhibition of cell growth at 40 uM after 72 hrs by CCK8 assay; assay type: functional; settings: SK-OV-3, 72 h, read-out: GI
[9] = system: SK-OV-3; assay: Cytotoxicity against human SKOV3 cells assessed as inhibition of cell growth at 4 uM after 72 hrs by CCK8 assay; assay type: functional; settings: SK-OV-3, 72 h, read-out: GI
[10] = system: MCF7; assay: Cytotoxicity against human MCF7 cells assessed as inhibition of cell growth at 0.0004 uM after 72 hrs by CCK8 assay; assay type: functional; settings: MCF7, 72 h, read-out: GI
[11] = system: MCF7; assay: Cytotoxicity against human MCF7 cells assessed as inhibition of cell growth at 4 uM after 72 hrs by CCK8 assay; assay type: functional; settings: MCF7, 72 h, read-out: GI
[12] = system: SK-OV-3; assay: Cytotoxicity against human SKOV3 cells assessed as inhibition of cell growth at 0.4 uM after 72 hrs by CCK8 assay; assay type: functional; settings: SK-OV-3, 72 h, read-out: GI
[13] = system: MCF7; assay: Cytotoxicity against human MCF7 cells assessed as inhibition of cell growth at 0.04 uM after 72 hrs by CCK8 assay; assay type: functional; settings: MCF7, 72 h, read-out: GI
[14] = system: SK-OV-3; assay: Cytotoxicity against human SKOV3 cells assessed as inhibition of cell growth at 0.04 uM after 72 hrs by CCK8 assay; assay type: functional; settings: SK-OV-3, 72 h, read-out: GI
[15] = system: SK-OV-3; assay: Cytotoxicity against human SKOV3 cells assessed as inhibition of cell growth at 0.0004 uM after 72 hrs by CCK8 assay; assay type: functional; settings: SK-OV-3, 72 h, read-out: GI
[16] = target: T1, Integrin alpha-V/beta-3; assay: Binding affinity to alphaVbeta3 integrin in human SKOV3 cells at 200 uM incubated for 3 hrs followed by compound washout prior to DBCO-Cy5 addition and measured after 1 hr by DAPI staining based fluorescence microscopic analysis; assay type: cell-based
[17] = system: SK-OV-3; assay: Cytotoxicity against human SKOV3 cells assessed as inhibition of cell growth after 72 hrs by CCK8 assay; assay type: functional, cell-based; settings: SK-OV-3, 72 h
[18] = system: MCF7; assay: Cytotoxicity against human MCF7 cells assessed as inhibition of cell growth after 72 hrs by CCK8 assay; assay type: functional, cell-based; settings: MCF7, 72 h

- IC50 [1]: 110 µM
Compound: [N-]=[N+]=NCCCC(=O)NCCCC[C@@H]1NC(=O)[C@H](Cc2ccccc2)NC(=O)[C@H](CC(=O)O)NC(=O)CNC(=O)[C@H](CCCN=C(N)N)NC1=O

- IC50 [1]: 2.13 µM
Compound: [N-]=[N+]=NCCCC(=O)N[C@@H](CCCNC(=N)N)C(=O)NCC(=O)N[C@@H](CC(=O)N[C@H]1CSSC[C@@H](C(=O)O)NC(=O)[C@H](CC(=O)O)NC(=O)CNC(=O)[C@H](CCCNC(=N)N)NC(=O)[C@H](CC(=O)O)NC(=O)CNC(=O)[C@H](CCCNC(=N)N)NC1=O)C(=O)N[C@@H](CCCNC(=N)N)C(=O)NCC(=O)N[C@@H](CC(=O)O)C(=O)NCCCC[C@@H]1NC(=O)[C@H](Cc2ccccc2)NC(=O)[C@H](CC(=O)O)NC(=O)CNC(=O)[C@H](CCCN=C(N)N)NC1=O
- inhibition of growth at 0.4 µM [2]: 17.6%
- inhibition of growth at 0.004 µM [3]: 13.4%
- inhibition of growth at 400 µM [4]: 30.2%
- inhibition of growth at 40 µM [5]: 23.8%
- inhibition of growth at 0.004 µM [6]: 19.5%
- inhibition of growth at 400 µM [7]: 28.8%
- inhibition of growth at 40 µM [8]: 28.1%
- inhibition of growth at 4 µM [9]: 23.9%
- inhibition of growth at 0.0004 µM [10]: 18.3%
- inhibition of growth at 4 µM [11]: 22.6%
- inhibition of growth at 0.4 µM [12]: 15.4%
- inhibition of growth at 0.04 µM [13]: 17.5%
- inhibition of growth at 0.04 µM [14]: 14.4%
- inhibition of growth at 0.0004 µM [15]: 13.1%

- IC50 [1]: 4.2 µM
- Activity [16]: Active
Compound: [N-]=[N+]=NCCCC(=O)N[C@@H](CCCNC(=N)N)C(=O)NCC(=O)N[C@@H](CC(=O)O)C(=O)N[C@@H](CCCNC(=N)N)C(=O)NCC(=O)N[C@@H](CC(=O)N[C@H]1CSSC[C@@H](C(=O)O)NC(=O)[C@H](CC(=O)O)NC(=O)CNC(=O)[C@H](CCCNC(=N)N)NC(=O)[C@H](CC(=O)O)NC(=O)CNC(=O)[C@H](CCCNC(=N)N)NC1=O)C(=O)NCCCC[C@@H]1NC(=O)[C@H](Cc2ccccc2)NC(=O)[C@H](CC(=O)O)NC(=O)CNC(=O)[C@H](CCCN=C(N)N)NC1=O

Compound: CC[C@H](C)[C@@H]([C@@H](CC(=O)N1CCC[C@H]1[C@H](OC)[C@@H](C)C(=O)N[C@H](C)[C@@H](O)c1ccccc1)OC)N(C)C(=O)[C@@H](NC(=O)[C@H](C(C)C)N(C)C(=O)OCc1ccc(NC(=O)[C@H](CCCNC(=N)N)NC(=O)[C@@H](NC(=O)CCCCC(=O)N2Cc3ccccc3-c3nnn(CCCC(=O)NCCCC[C@@H]4NC(=O)[C@H](Cc5ccccc5)NC(=O)[C@H](CC(=O)O)NC(=O)CNC(=O)[C@H](CCCN=C(N)N)NC4=O)c3-c3ccccc32)C(C)C)cc1)C(C)C
- IC50 [17]: 4.5 µM
- IC50 [18]: 93.2 µM

- IC50 [1]: 24.5 µM
Compound: [N-]=[N+]=NCCCC(=O)N[C@@H](CCCNC(=N)N)C(=O)NCC(=O)N[C@@H](CC(=O)N[C@H]1CSSC[C@@H](C(=O)O)NC(=O)[C@H](CC(=O)O)NC(=O)CNC(=O)[C@H](CCCNC(=N)N)NC(=O)[C@H](CC(=O)O)NC(=O)CNC(=O)[C@H](CCCNC(=N)N)NC1=O)C(=O)N[C@@H](CCCNC(=N)N)C(=O)NCC(=O)N[C@@H](CC(=O)O)C(=O)N[C@@H](CCCNC(=N)N)C(=O)NCC(=O)N[C@@H](CC(=O)O)C(=O)NCCCC[C@@H]1NC(=O)[C@H](Cc2ccccc2)NC(=O)[C@H](CC(=O)O)NC(=O)CNC(=O)[C@H](CCCN=C(N)N)NC1=O

- IC50 [1]: 25.1 µM
Compound: [N-]=[N+]=NCCCC(=O)N[C@@H](CCCNC(=N)N)C(=O)NCC(=O)N[C@@H](CC(=O)O)C(=O)N[C@@H](CCCNC(=N)N)C(=O)NCC(=O)N[C@@H](CC(=O)O)C(=O)NCCCC[C@@H]1NC(=O)[C@H](Cc2ccccc2)NC(=O)[C@H](CC(=O)O)NC(=O)CNC(=O)[C@H](CCCN=C(N)N)NC1=O

- IC50 [1]: 8.9 µM
Compound: [N-]=[N+]=NCCCC(=O)N[C@@H](CCCNC(=N)N)C(=O)NCC(=O)N[C@@H](CC(=O)O)C(=O)N[C@@H](CCCNC(=N)N)C(=O)NCC(=O)N[C@@H](CC(=O)NCCCC[C@@H]1NC(=O)[C@H](Cc2ccccc2)NC(=O)[C@H](CC(=O)O)NC(=O)CNC(=O)[C@H](CCCN=C(N)N)NC1=O)C(=O)NCCCC[C@@H]1NC(=O)[C@H](Cc2ccccc2)NC(=O)[C@H](CC(=O)O)NC(=O)CNC(=O)[C@H](CCCN=C(N)N)NC1=O

Compound: CC[C@H](C)[C@@H]([C@@H](CC(=O)N1CCC[C@H]1[C@H](OC)[C@@H](C)C(=O)N[C@H](C)[C@@H](O)c1ccccc1)OC)N(C)C(=O)[C@@H](NC(=O)[C@H](C(C)C)N(C)C(=O)OCc1ccc(NC(=O)[C@H](CCCNC(=N)N)NC(=O)[C@@H](NC(=O)CCCCC(=O)N2Cc3ccccc3-c3nnn(CCCC(=O)N[C@@H](CCCNC(=N)N)C(=O)NCC(=O)N[C@@H](CC(=O)O)C(=O)N[C@@H](CCCNC(=N)N)C(=O)NCC(=O)N[C@@H](CC(=O)N[C@H]4CSSC[C@@H](C(=O)O)NC(=O)[C@H](CC(=O)O)NC(=O)CNC(=O)[C@H](CCCNC(=N)N)NC(=O)[C@H](CC(=O)O)NC(=O)CNC(=O)[C@H](CCCNC(=N)N)NC4=O)C(=O)NCCCC[C@@H]4NC(=O)[C@H](Cc5ccccc5)NC(=O)[C@H](CC(=O)O)NC(=O)CNC(=O)[C@H](CCCN=C(N)N)NC4=O)c3-c3ccccc32)C(C)C)cc1)C(C)C
- IC50 [17]: 0.44 µM
- IC50 [18]: 19.9 µM

Compound: CC[C@H](C)[C@@H]([C@@H](CC(=O)N1CCC[C@H]1[C@H](OC)[C@@H](C)C(=O)N[C@H](C)[C@@H](O)c1ccccc1)OC)N(C)C(=O)[C@@H](NC(=O)[C@H](C(C)C)N(C)C(=O)OCc1ccc(NC(=O)[C@H](CCCNC(=N)N)NC(=O)[C@@H](NC(=O)CCCCC(=O)N2Cc3ccccc3C#Cc3ccccc32)C(C)C)cc1)C(C)C (X1-VR[PABC][NMeV]V[Dil][Dolaproine]-X2)
- IC50 [17]: 1 µM
- IC50 [18]: 22.3 µM
